“And” between values parts separate entries of the source, which are not always exact repeats. Identical values can stand only once. “Also recorded” adds a separate entry of the source. Like-named read-outs stand apart in the source and are kept apart here.
What was measured:
ex vivo porcine corneas = test: Ex vivo tensile testing of cross-linked porcine corneas (elastic modulus); set-up: species or system domestic pig (Sus domesticus)
Experimental: Eyes of the domestic pig (Sus domesticus) are collected from a local abattoir 0-4 hours post-mortem. Eyes are cleaned of excess tissue and fat and washed in PBS containing 200 U penicillin and 0.2 mg/ml streptomycin and 5 μg/ml amphotericin B (Merch Life Science, Dorset, UK). The eyes are stored in a petri dish containing the PBS antibiotic/antimycotic solution, corneas facing up, at 4° C. overnight.
The porcine eyes are removed from 4° C. and allowed to warm to room temperature. One-to-two drops of Minims Proxymetacaine hydrochloride 0.5% w/v (Bosch & Lomb, Surrey, UK) were applied to the cornea for 15 minutes, with additional drops added ever 5 minutes and then 2-3 minutes before treatment. After which a suction ring (E.Janach, Como, Italy) was attached to the cornea (FIG. 1) and 200 μl of BS^3 solution was added inside the ring. Eyes were incubated for 5, 15 or 30 mins at 37° C.; after which the BS^3 solution was aspirated and retained for pH measurement, and eyes were rinsed in PBS then stored, cornea facing down, in a 6-well plate with fresh PBS until tensile measurement.
Suction rings were applied to porcine corneas as in FIG. 1 and 18% ethanol solution was applied for 30 seconds before being adsorbed by a sponge spear. The cornea was then rinsed with PBS. After this the epithelium was removed with a corneal scraper and sponge spear. Once the epithelium was removed 0.1% riboflavin (Vibex Rapid™, Avedro Inc, MA, USA) was applied every 3 mins. Riboflavin was applied for a total of 30 mins for the Dresden protocol and 15 minutes for the Accelerated protocol.
After riboflavin treatment eyes were cross-linked by UVA light using and KXL System (Avedro Inc). UV light was applied at 3 mW/cm^2 for 30 mins for the Dresden protocol and 6 mW/cm^2 for 15 mins for the Accelerated protocol for a total applied energy of 5.4 J/cm^2 for both protocols.
The anterior section of the eye was removed by cutting around the globe 5-10 mm posteriorly from the limbus. The iris and ciliary process were removed from the posterior section of the tissue leaving only sclera and cornea. A strip of tissue was cut using a custom-made replaceable razor blade jig. Tissue thickness and width (determined as the distance between cutting edges) were measured with calipers.
(§1) The tissue strip was mounted in the grips of a Univert tensile tester (CellScale, Ontario, Canada) with a 50 N load cell. Tissue was stretched at a rate of 125 μm/s until failure. Data was captured at 1 Hz. Stress-strain curves were plotted and the elastic modulus was determined at a range of strains: 5-10%, 10-15%, 20-25% and 30-35%. Data were trimmed to 3% from the strain at ultimate tensile strain and 6 term polynomial equations we determined from each curve. […] These polynomials represent the stress-stain response of each cornea and were used to create an average stress-strain curve for the samples.
Ex vivo mechanical data were compared by One-way ANOVA and Tukey's post-hoc.

[1] = Experimental: To investigate cross-linker stability 0.2 M BS^3 was prepared in various buffers. The pH was measured using a SevenGO SG2 pH meter with an InLab Ultra-Micro-ISM electrode (Mettler Toldedo, Leicester, UK). Nine carbonate buffer and two phosphate buffer formulations were investigated. All were prepared in deionised H2O. Formulations can be seen in Table 1 below. The pH of BS^3 at concentrations of 0.2 M and 0.035 M (20 mg/ml as per patent US2014/0271897 A1 claim [0358]) in phosphate buffered saline (PBS) were also measured. The pH was measured immediately after addition BS3 and filtration (00:00) then at 30 mins, 1 hour, 2 hours, 3 hours, 4 hours, 24 hours.
BS^3 (bis(sulfosuccinimidyl)suberate, Thermo Scientific Pierce, IL, USA) solutions was prepared to concentrations of 0.2 M in the buffer solution, vortexed for 1 min and then filtered through 0.2 μm filter.

rabbit corneas [2] = details: in vivo
Experimental: (§2) Male Wistar rats (300 g) and mixed sex New Zealand rabbits (1.5-3 kg), both specific-antigen free, were ordered from Charles River UK and ENVIGO, respectively. They were allowed a minimum of 7 days acclimatisation prior to procedures. Animals were anaesthetised and proxymetacaine hydrochloride 0.5% w/v was applied to the corneas. For the rats, a 2 cm section of silicone tubing was placed on the cornea whereas for the rabbits the suction ring (as above) was placed on the cornea, and 200 μl of the sterile filtered 0.2 M BS^3 solution was instilled for 15 mins. Following this, eyes were rinsed with saline. Animals were provided with antibiotic/steroid drops (Tobradex, Novartis Pharmaceuticals UK Ltd, London, UK) daily and were monitored for any signs for distress or ocular discomfort.
(§3) The animals were euthanised at pre-determined time points (rats at 24 hours and 7 days; rabbits at 3 days post-treatment). Aqueous humour was collected. Rat ocular tissue was collected and fixed in 10% paraformaldehyde for histology. […]
(§4) Corneal thickness and transparency were determined using optical coherence tomography (OCT) (ENVISU R2210, Leica Microsystems, Milton Keynes, UK) before treatment and prior to euthanasia. Corneal transparency was determined by the intensity of the pixels within the cornea minus background intensity from the corneal sections of the OCT images. […]

rat corneas = details: in vivo
Experimental: as §2, §3, §4

[3] = system: inflammatory cytokines in rat aqueous humour; details: in vivo
Experimental: as §2
(§5) The animals were euthanised at pre-determined time points (rats at 24 hours and 7 days; rabbits at 3 days post-treatment). Aqueous humour was collected. Rat ocular tissue was collected and fixed in 10% paraformaldehyde for histology. Rabbit the eyes enucleated and prepared for mechanical testing which was conducted the following day and the remaining cornea was fixed. Ocular tissue was also fixed in 10% paraformaldehyde.
(§6) Statistical analyses were performed with Prism 9.3.1 (GraphPad Software, San Diego, CA, USA). In vivo data were compared by paired t-tests to contralateral control eyes.

rabbit corneas [4] = test: Rabbit corneal tensile measurements after in vivo treatment; set-up: species or system New Zealand rabbits; details: for Percentage Change in Modulus After 3 Days Compared to Control / Percentage Change in Modulus Compared to Control: 0.2M BS^3 for 15 mins; for Percentage Change in Modulus After 3 Days Compared to Control: 3 days after treatment; for Percentage Change in Modulus Compared to Control: 28 days after treatment
Experimental: as §1, §2
as §5, with “Aqueous” for “The animals were euthanised at pre-determined time points (rats at 24 hours and 7 days; rabbits at 3 days post-treatment). Aqueous”
Rabbit eyes were collected immediately after culling and were stored in a petri dish containing the PBS antibiotic/antimycotic solution, corneas facing up, at 4° C. overnight. Mechanical testing was conducted using the protocol above for ex vivo porcine tissue.
as §6

[5] = Accelerated UV/Riboflavin protocol, strain range 5-10%
[6] = Dresden UV/riboflavin protocol, strain range 5-10%

Cc1cc2nc3c(=O)[nH]c(=O)nc-3n(C[C@H](O)[C@H](O)[C@H](O)CO)c2cc1C [Accelerated, riboflavin, reference compound]
Percentage Change in Modulus Compared to Control (ex vivo porcine corneas; [5]): 79%
difference in elastic modulus compared to control (ex vivo porcine corneas; [5]): not significantly different
elastic modulus (ex vivo porcine corneas; [5]): 5.45±2.97 MPa
Percentage Change in Modulus Compared to Control (ex vivo porcine corneas; Accelerated UV/riboflavin protocol, strain range 10-15%): 46%
Percentage Change in Modulus Compared to Control (ex vivo porcine corneas; Accelerated UV/riboflavin protocol, strain range 20-25%): 28%
Percentage Change in Modulus Compared to Control (ex vivo porcine corneas; Accelerated UV/riboflavin protocol, strain range 30-35%): 16%

Cc1cc2nc3c(=O)[nH]c(=O)nc-3n(C[C@H](O)[C@H](O)[C@H](O)CO)c2cc1C [Dresden, riboflavin, reference compound]
Percentage Change in Modulus Compared to Control (ex vivo porcine corneas; [6]): 158%
elastic modulus (ex vivo porcine corneas; [6]): 7.99±4.58 MPa
Percentage Change in Modulus Compared to Control (ex vivo porcine corneas; Dresden UV/riboflavin protocol, strain range 10-15%): 123% and 124%
Percentage Change in Modulus Compared to Control (ex vivo porcine corneas; Dresden UV/riboflavin protocol, strain range 20-25%): 62%
Percentage Change in Modulus Compared to Control (ex vivo porcine corneas; Dresden UV/riboflavin protocol, strain range 30-35%): 34%

bis(sulfosuccinimidyl)suberate [BS3]
pH by 30 minutes ([1]; 20 mg/ml (0.035 M) BS^3 in PBS (Dulbecco A), formulation of US2014/0271897 A1 [0358]): 5.18
precipitation ([1]; 0.2 M BS^3 in 0.1 M and 0.2 M carbonate buffers, at 24 hours): Precipitation was observed
initial pH after the addition of 0.2 M BS^3 ([1]; 0.2 M BS^3 in 0.5 M carbonate buffers): > 7
pH over the 24 hour testing period ([1]; 0.2 M BS^3 in 0.5 M carbonate:bicarbonate buffer, ratio 5:5): > 6
precipitation ([1]; 0.2 M BS^3 in 0.5 M carbonate:bicarbonate buffer, ratio 5:5, 24 hour testing period): did not have any precipitation
pH over the 24 hour testing period ([1]; 0.2 M BS^3 in 0.5 M carbonate:bicarbonate buffer, ratio 9:1): > 6
precipitation ([1]; 0.2 M BS^3 in 0.5 M carbonate:bicarbonate buffer, ratio 9:1, 24 hour testing period): did not have any precipitation
Percentage Change in Modulus Compared to Control (ex vivo porcine corneas; 20 mg/ml (0.035 M) BS3 in PBS (US2014/0271897 A1 [0358]), strain range 5-10%): −28%
Percentage Change in Modulus Compared to Control (ex vivo porcine corneas; 20 mg/ml (0.035 M) BS3 in PBS (US2014/0271897 A1 [0358]), strain range 10-15%): −10%
Percentage Change in Modulus Compared to Control (ex vivo porcine corneas; 20 mg/ml (0.035 M) BS3 in PBS (US2014/0271897 A1 [0358]), strain range 20-25%): 3%
Percentage Change in Modulus Compared to Control (ex vivo porcine corneas; 20 mg/ml (0.035 M) BS3 in PBS (US2014/0271897 A1 [0358]), strain range 30-35%): 15%
difference in elastic modulus compared to control (ex vivo porcine corneas; 20 mg/ml (0.035 M) BS^3 in PBS, any of the strain ranges, p>0.05): no significant difference
Percentage Change in Modulus Compared to Control (ex vivo porcine corneas; 0.2M BS3, 5 min treatment, strain range 5-10%): 76%
Percentage Change in Modulus Compared to Control (ex vivo porcine corneas; 0.2M BS3, 5 min treatment, strain range 10-15%): 60%
Percentage Change in Modulus Compared to Control (ex vivo porcine corneas; 0.2M BS3, 5 min treatment, strain range 20-25%): 42%
Percentage Change in Modulus Compared to Control (ex vivo porcine corneas; 0.2M BS3, 5 min treatment, strain range 30-35%): 12%
Percentage Change in Modulus Compared to Control (ex vivo porcine corneas; 0.2M BS3, 15 min treatment, strain range 5-10%): 109%
Percentage Change in Modulus Compared to Control (ex vivo porcine corneas; 0.2M BS3, 15 min treatment, strain range 5-10%, listed as BS^3): 109%
Percentage Change in Modulus Compared to Control (ex vivo porcine corneas; 0.2M BS3, 15 min treatment, strain range 10-15%): 68%
Percentage Change in Modulus Compared to Control (ex vivo porcine corneas; 0.2M BS3, 15 min treatment, strain range 10-15%, listed as BS^3): 68%
Percentage Change in Modulus Compared to Control (ex vivo porcine corneas; 0.2M BS3, 15 min treatment, strain range 20-25%): 43%
Percentage Change in Modulus Compared to Control (ex vivo porcine corneas; 0.2M BS3, 15 min treatment, strain range 30-35%): 18%
Percentage Change in Modulus Compared to Control (ex vivo porcine corneas; 0.2M BS3, 15 min treatment, strain range 30-35%, listed as BS^3): 18%
Percentage Change in Modulus Compared to Control (ex vivo porcine corneas; 0.2M BS3, 30 min treatment, strain range 5-10%): 56%
Percentage Change in Modulus Compared to Control (ex vivo porcine corneas; 0.2M BS3, 30 min treatment, strain range 10-15%): 54%
Percentage Change in Modulus Compared to Control (ex vivo porcine corneas; 0.2M BS3, 30 min treatment, strain range 20-25%): 45%
Percentage Change in Modulus Compared to Control (ex vivo porcine corneas; 0.2M BS3, 30 min treatment, strain range 30-35%): 22%
stiffness (elastic modulus) (ex vivo porcine corneas; 0.2 M BS^3 in 0.5 M carbonate:bicarbonate 9:1, 5 min treatment, strain range 5-10%): 5.43±2.23 MPa
stiffness (elastic modulus) (ex vivo porcine corneas; 0.2 M BS^3 in 0.5 M carbonate:bicarbonate 9:1, 15 min treatment, strain range 5-10%): 6.47±2.23 MPa
stiffness (elastic modulus) (ex vivo porcine corneas; 0.2 M BS^3 in 0.5 M carbonate:bicarbonate 9:1, 30 min treatment, strain range 5-10%): 4.84±2.02 MPa
reduction in corneal thickness in the treated eyes vs contralateral control (rabbit corneas [2]): 100±20 μm
reduction in corneal thickness in the treated eye vs contralateral control (rat corneas): 42±29 μm
change in IL-2 in aqueous humour, treated vs control eyes [3]: −0.76 fold
change in IL-4 in aqueous humour, treated vs control eyes [3]: −0.63 fold
reductions in IL-2 and IL-4 in aqueous humour [3]: resolved by day 7
Percentage Change in Modulus After 3 Days Compared to Control (rabbit corneas [4]; strain range 5-10%): −6%
Percentage Change in Modulus After 3 Days Compared to Control (rabbit corneas [4]; strain range 10-15%): 15%
Percentage Change in Modulus After 3 Days Compared to Control (rabbit corneas [4]; strain range 15-20%): 43%
Percentage Change in Modulus After 3 Days Compared to Control (rabbit corneas [4]; strain range 20-25%): 104%
Percentage Change in Modulus Compared to Control (rabbit corneas [4]; strain range 5-10%): 22%
Percentage Change in Modulus Compared to Control (rabbit corneas [4]; strain range 10-15%): 29%
Percentage Change in Modulus Compared to Control (rabbit corneas [4]; strain range 15-20%): 28%
Percentage Change in Modulus Compared to Control (rabbit corneas [4]; strain range 20-25%): 38%
effect on stiffness of corneal tissue vs untreated control eye (rabbit corneas [4]; 3 days, lower strain ranges (5-10% & 10-15%)): No significant difference; also recorded: insignificant effect
effect on stiffness of corneal tissue vs untreated control eye (rabbit corneas [4]; 28 days, lowest and highest strain ranges): No significant difference

Source: patent US20250295631A1, “NOVEL TREATMENT” (University of Liverpool, priority 2022, published 2025)
